From PMC4428629, “The Structure of an NDR/LATS Kinase–Mob Complex Reveals a Novel Kinase–Coactivator System and Substrate Docking Mechanism” (PLoS Biology, 2015)
Where two headings read alike, the source gives them in different places. Non-standard residues stand in square brackets, D forms with d. Residues, ends and D or L forms follow the SMILES beside them. pT = C[C@@H](OP(=O)(O)O)[C@H](N)C(=O)O

What was measured:
[1] = molecular target: T1, Cbk1^251-756-Mob2 (Saccharomyces cerevisiae, UniProt P43563+P53894); test: FP direct titration, Cbk1^251-756-Mob2 (WT); type: binding
T1 construct: His6-Cbk1^251–756 was co-expressed with GST-Mob2 (full length or 45–287); His6 (N); made in house
T1 sequence (P53894 251-756): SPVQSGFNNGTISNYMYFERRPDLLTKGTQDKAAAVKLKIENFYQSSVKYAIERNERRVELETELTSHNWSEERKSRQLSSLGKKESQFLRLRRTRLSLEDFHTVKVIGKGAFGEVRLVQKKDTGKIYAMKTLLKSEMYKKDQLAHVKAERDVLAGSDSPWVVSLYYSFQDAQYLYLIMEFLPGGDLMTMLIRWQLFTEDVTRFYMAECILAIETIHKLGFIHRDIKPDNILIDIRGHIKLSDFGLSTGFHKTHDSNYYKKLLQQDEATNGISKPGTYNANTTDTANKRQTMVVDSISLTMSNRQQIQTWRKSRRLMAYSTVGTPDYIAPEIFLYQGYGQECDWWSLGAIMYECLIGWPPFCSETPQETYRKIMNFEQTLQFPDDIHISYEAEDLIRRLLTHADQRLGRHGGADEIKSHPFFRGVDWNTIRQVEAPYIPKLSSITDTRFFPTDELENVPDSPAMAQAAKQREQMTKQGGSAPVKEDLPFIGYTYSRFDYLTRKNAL
T1 sequence (P43563 1-287 partner): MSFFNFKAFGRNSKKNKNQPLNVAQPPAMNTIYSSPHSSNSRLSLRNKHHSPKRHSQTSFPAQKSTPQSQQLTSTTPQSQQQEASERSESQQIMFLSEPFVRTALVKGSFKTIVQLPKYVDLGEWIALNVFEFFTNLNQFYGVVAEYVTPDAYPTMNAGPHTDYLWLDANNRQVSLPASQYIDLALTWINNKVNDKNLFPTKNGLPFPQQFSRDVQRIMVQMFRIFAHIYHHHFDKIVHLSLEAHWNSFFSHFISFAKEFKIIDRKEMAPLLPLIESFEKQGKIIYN
Experimental: (§1) His6-Cbk1^251–756 was co-expressed with GST-Mob2 (full length or 45–287). Cbk1 kinase domain alone (352–756 or 352–692) was expressed as GST-Cbk1-His6. All constructs were bacterially expressed and purified on a Ni-NTA resin (Qiagen) followed by glutathione Sepharose beads (GE Biosciences). For crystallization, tags were cleaved with TEV protease followed by cation exchange chromatography on a Resource S column. All Cbk1 preparations were subsequently dialyzed into Cbk1 buffer (20 mM Tris-HCl, 150 mM NaCl, 2 mM DTT [pH 8.0]).
(§2) For FP-based binding affinity measurements, different docking peptides (pepAce2: GSGSIIVTTNSANGGYQFP; pepSSD1: TTEQSDFKFP; pepHM: IGYTYSRFDY; pepHM-P: IGYpTYSRFDY) were N-terminally (pepAce2 and pepSSD1) or C-terminally (pepHM and pepHM-P) labeled with carboxyfluorescein (CF) fluorescent dyes.
Change in the FP signal in direct binding affinity measurements was monitored as a function of increasing concentration of protein with a Synergy H4 (BioTek Instruments) plate reader in 384-well plates. The labeled peptides were at 20 nM in 20 mM Tris (pH 8.0), 100 mM NaCl, 0.05% Brij35P, 2 mM DTT. The resulting binding isotherms were fit to a quadratic binding equation. The affinity of the unlabeled peptides was measured in steady-state competition experiments: 20 nM labeled reporter was mixed with protein samples in a concentration to achieve ~60%–80% complex formation. Subsequently, increasing amounts of unlabeled peptide were added, and the FP signal was measured as described earlier for direct titration experiments. The Kd for each unlabeled peptide interaction was determined by fitting the data to a competition binding equation. Titration experiments were carried out in triplicate, and the average FP signal was used for fitting the data with OriginPro 7.

[2] = molecular target: T2, Cbk1^251-756(F699A)-Mob2 (Saccharomyces cerevisiae, UniProt P43563+P53894, F699A); test: biochemical; type: binding
T2 construct: His6-Cbk1^251–756 was co-expressed with GST-Mob2 (full length or 45–287); His6 (N); made in house
Experimental: as §1, §2
(§3) Change in the FP signal in direct binding affinity measurements was monitored as a function of increasing concentration of protein with a Synergy H4 (BioTek Instruments) plate reader in 384-well plates. The labeled peptides were at 20 nM in 20 mM Tris (pH 8.0), 100 mM NaCl, 0.05% Brij35P, 2 mM DTT. […] Subsequently, increasing amounts of unlabeled peptide were added, and the FP signal was measured as described earlier for direct titration experiments. The Kd for each unlabeled peptide interaction was determined by fitting the data to a competition binding equation. […]

[3] = molecular target: T3, Cbk1^Δ730–756–Mob2 (Saccharomyces cerevisiae, UniProt P43563+P53894); test: biochemical; type: binding
T3 construct: His6-Cbk1^251–756 was co-expressed with GST-Mob2 (full length or 45–287); His6 (N); made in house
Text: ND, not determined. […] (PDF) Click here for additional data file.

[4] = molecular target: T4, Cbk1^251-756(F447A)-Mob2 (Saccharomyces cerevisiae, UniProt P43563+P53894, F447A); test: biochemical; type: binding
T4 construct: His6-Cbk1^251–756 was co-expressed with GST-Mob2 (full length or 45–287); His6 (N); made in house
Experimental: as §1, §2, §3

[5] = tested on: Cbk1; test: In vitro kinase assay resolved by SDS-PAGE, Ace2/Ssd1 fragments; type: biochemical, Saccharomyces cerevisiae; settings: Cbk1^352–756 kinase domain (S5D)
Experimental: Kinase assays resolved by SDS-PAGE were conducted with GST-Ace2 or GST-Ssd1 fusions. Reactions contained 1–5 μM substrate, 100–250 nM Cbk1, 5 mM MnCl2, 2 mM DTT, 20 μM ATP, 10 μCi γ-^32P-ATP in Cbk1 buffer. Samples were removed at indicated time points and quenched with SDS-PAGE buffer, followed by SDS-PAGE separation. ^32P was visualized using a Storm phosphorimager (GE Biosciences) and quantified using ImageQuant software.

T4 sequence (P53894 251-756 F447A, one chain of several): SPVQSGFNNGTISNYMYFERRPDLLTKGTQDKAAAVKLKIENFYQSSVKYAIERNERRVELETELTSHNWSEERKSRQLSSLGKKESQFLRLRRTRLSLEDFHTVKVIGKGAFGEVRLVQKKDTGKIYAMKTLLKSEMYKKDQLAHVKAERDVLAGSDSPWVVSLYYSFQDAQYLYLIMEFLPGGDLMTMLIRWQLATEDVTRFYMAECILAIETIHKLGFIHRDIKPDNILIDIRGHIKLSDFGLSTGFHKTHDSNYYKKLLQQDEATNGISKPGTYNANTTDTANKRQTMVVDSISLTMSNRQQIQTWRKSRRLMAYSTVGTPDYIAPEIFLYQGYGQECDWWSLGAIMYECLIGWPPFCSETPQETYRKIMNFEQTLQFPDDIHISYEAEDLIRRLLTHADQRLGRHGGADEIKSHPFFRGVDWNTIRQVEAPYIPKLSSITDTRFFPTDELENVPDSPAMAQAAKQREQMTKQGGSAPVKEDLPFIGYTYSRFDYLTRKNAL
T2 sequence (P53894 251-756 F699A, one chain of several): as the sequence (P53894 251-756 F447A, one chain of several) above, with A197F, F449A counted along it

Molecule: CC[C@H](C)[C@H](NC(=O)[C@H](CO)NC(=O)CNC(=O)[C@H](CO)NC(=O)CN)C(=O)N[C@H](C(=O)N[C@H](C(=O)N[C@H](C(=O)N[C@H](C(=O)N[C@@H](CC(N)=O)C(=O)N[C@@H](CO)C(=O)N[C@@H](C)C(=O)N[C@@H](CC(N)=O)C(=O)NCC(=O)NCC(=O)N[C@@H](Cc1ccc(O)cc1)C(=O)N[C@@H](CCC(N)=O)C(=O)N[C@@H](Cc1ccccc1)C(=O)N1CCC[C@H]1C(=O)O)[C@@H](C)O)[C@@H](C)O)C(C)C)[C@@H](C)CC [pepAce2] (H-GSGSIIVTTNSANGGYQFP-OH)
- Kd ([1]; CF-labeled peptide 20 nM, Tris pH 8.0, triplicate, read-out: peptide binding affinity (table in Fig 5C)): 5 µM
- Kd ([1]; labeled synthetic peptides, Cbk1–Mob2 (S5H Fig), read-out: Kd): ~6 µM
- Kd [2]: 5 µM

Molecule: CC[C@H](C)[C@H](N)C(=O)NCC(=O)N[C@@H](Cc1ccc(O)cc1)C(=O)N[C@H](C(=O)N[C@@H](Cc1ccc(O)cc1)C(=O)N[C@@H](CO)C(=O)N[C@@H](CCCNC(=N)N)C(=O)N[C@@H](Cc1ccccc1)C(=O)N[C@@H](CC(=O)O)C(=O)N[C@@H](Cc1ccc(O)cc1)C(=O)O)[C@@H](C)OP(=O)(O)O [pepHM-P] (H-IGY[pT]YSRFDY-OH)
- Kd [3]: ~6 µM
- Kd [4]: 33 µM

B1: Ace2^102–306: Ace2 fragment, kinase substrate containing docking motif (protein, UniProt P21192 102-306, looked up, fragment)
chain: ENNKVSHYSKKSMSSHKRGLSGTAIFGFLGHNKTLSISSLQQSILNMSKDPQPMELINELGNHNTVKNNNDDFDHIRENDGENSYLSQVLLKQQEELRIALEKQKEVNEKLEKQLRDNQIQQEKLRKVLEEQEEVAQKLVSGATNSNSKPGSPVILKTPAMQNGRMKDNAIIVTTNSANGGYQFPPPTLISPRMSNTSINGSPSR
- enhancement of phosphorylation by docking motif [5]: 100 fold
